Values quoted from earlier work as cited in US20070167418A1 (priority 2004, published 2007).
Like-named read-outs stand apart in the source and are kept apart here.

Tests used:
men with ED [1] = settings: 100 mg; placebo twenty-two percent
[2] = in vivo
[3] = not given; remark: listed apart in the source
men with ED [4] = settings: intraurethral suppositories
ED = settings: oral

CC(C)NCC(O)COc1ccc(CC(N)=O)cc1 (stereo not shown) [atenolol]
men reporting ED after beginning treatment (50 mg, men informed of its sexual adverse effects): 31% | men reporting ED after beginning treatment (similarly treated, men blinded as to the study drug): 3%

CCCc1nn(C)c2c(=O)[nH]c(-c3cc(S(=O)(=O)N4CCN(C)CC4)ccc3OCC)nc12 [sildenafil]
men achieving successful intercourse (men with ED [1]): sixty-nine | half-life [2]: four to five

C[C@]12CC[C@H]3[C@@H](CCC4=CC(=O)CC[C@@]43C)[C@@H]1CC[C@@H]2O [testosterone]
restoring physiological testosterone levels ([3]; gels): high efficacy | men with erythrocytosis ([3]; gels or patches): 5% | men with gynecomastia, peripheral edema, exacerbation or de novo sleep apnea, acne and mild weight gain ([3]; in vivo): less than 2% | men with erythrocytosis ([3]; injections): ≤ 50% | hepatotoxicity risk ([3]; oral agents available in the United States): significant risk of hepatotoxity | liver toxicity ([3]; transdermal or intramuscular preparations): does not seem to be associated | men with local skin reactions ([3]; transdermal, patches): ≤ 40%

CCCc1nc(C)c2c(=O)[nH]c(-c3cc(S(=O)(=O)N4CCN(CC)CC4)ccc3OCC)nn12 [vardenafil]
half-life [2]: four to five | time of peak serum concentrations [2]: approximately one

CN1CC(=O)N2[C@H](c3ccc4c(c3)OCO4)c3[nH]c4ccccc4c3C[C@@H]2C1=O [tadalafil]
half-life [2]: approximately eighteen

CCCCC[C@H](O)/C=C/[C@H]1[C@H](O)CC(=O)[C@@H]1CCCCCCC(=O)O [alprostadil]
efficacy compared with penile injection (men with ED [4]): less effective

COC(=O)[C@@H]1[C@H]2C[C@H]3c4[nH]c5ccccc5c4CCN3C[C@@H]2CC[C@@H]1O [Yohimbine]
efficacy in the treatment of ED (ED): limited efficacy
